Literature values, collected in patent publication US20220177978A1, “METHODS OF PREDICTING AND PREVENTING CANCER IN PATIENTS HAVING PREMALIGNANT LESIONS” (INSERM (Institut National de la Santé et de la Recherche …, priority 2019, published 2022).

How the values were obtained:
[1] = molecular target: JAK2 (Homo sapiens, UniProt O60674)
[2] = test system: other JAK-family kinases

Sequence of JAK2 (O60674 whole entry, species assumed): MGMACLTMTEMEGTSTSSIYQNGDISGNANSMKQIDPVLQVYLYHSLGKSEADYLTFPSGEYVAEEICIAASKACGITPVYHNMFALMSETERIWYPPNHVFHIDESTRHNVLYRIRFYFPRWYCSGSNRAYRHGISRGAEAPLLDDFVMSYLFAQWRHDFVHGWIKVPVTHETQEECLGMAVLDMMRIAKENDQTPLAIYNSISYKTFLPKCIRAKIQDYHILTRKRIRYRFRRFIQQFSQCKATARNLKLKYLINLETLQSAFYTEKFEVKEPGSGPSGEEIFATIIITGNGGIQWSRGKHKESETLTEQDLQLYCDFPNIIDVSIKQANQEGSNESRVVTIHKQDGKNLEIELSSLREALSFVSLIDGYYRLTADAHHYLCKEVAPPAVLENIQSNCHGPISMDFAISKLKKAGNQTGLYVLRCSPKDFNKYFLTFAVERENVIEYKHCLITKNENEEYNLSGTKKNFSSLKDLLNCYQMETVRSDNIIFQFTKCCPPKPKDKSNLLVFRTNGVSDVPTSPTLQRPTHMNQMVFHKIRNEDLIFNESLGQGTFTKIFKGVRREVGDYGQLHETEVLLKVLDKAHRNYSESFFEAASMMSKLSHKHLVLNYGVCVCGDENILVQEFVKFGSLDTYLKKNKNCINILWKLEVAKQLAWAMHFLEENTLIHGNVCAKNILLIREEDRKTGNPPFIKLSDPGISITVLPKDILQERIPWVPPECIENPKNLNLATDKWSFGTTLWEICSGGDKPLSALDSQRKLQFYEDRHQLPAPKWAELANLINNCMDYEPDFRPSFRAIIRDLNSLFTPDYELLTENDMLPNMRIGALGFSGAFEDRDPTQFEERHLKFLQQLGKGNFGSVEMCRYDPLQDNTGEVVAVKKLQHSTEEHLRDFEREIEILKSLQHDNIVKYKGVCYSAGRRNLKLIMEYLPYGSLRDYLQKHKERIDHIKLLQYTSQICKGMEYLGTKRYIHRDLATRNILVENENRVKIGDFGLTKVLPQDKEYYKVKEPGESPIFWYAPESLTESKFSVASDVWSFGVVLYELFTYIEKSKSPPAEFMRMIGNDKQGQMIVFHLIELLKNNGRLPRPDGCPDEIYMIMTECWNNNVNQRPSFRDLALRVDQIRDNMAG

Structure (SMILES): C[C@H](Nc1cc(-c2cnn(C)c2)cc(Nc2cnccn2)n1)c1ccc(F)cc1 [NS018]
- IC50 [1]: < 1 nM
- selectivity for JAK2 over other JAK-family kinases [2]: 30-50 fold
